Data set [1] has as its system Panc-1 (pancreatic carcinoma carrying a K-RAS G12D mutation). The data set is described as follows: Fab-ZAP assay (saporin-linked secondary antibody, XTT). The data set is classed as cell-based, human. The following applies: 4.5 nM FabZAP, 5 days. The source says: (§1) Saporin is a 30 kDa ribosome-inhibitor which is unable to cross a cell membrane unaided (except at extremely high concentrations). However, when it is conjugated to an internalizing antibody, as previously described (DOI: 10.3390/toxins14030184), it can be used to kill target cells precisely and specifically with little to no off-target toxicity (See, for example, Lund et. al., mAbs, 6(4), 1038-1050, doi.org/10.4161/mabs.28207). […]
(§2) We specifically utilized Panc-1 (pancreatic carcinoma carrying a K-RAS G12D mutation), Capan-2 (pancreatic carcinoma carrying a K-RAS G12V mutation), AsPC-1 (pancreatic cell line carrying a K-RAS G12D mutation), LS180 (colon cancer cell line carrying a K-RAS G12D mutation), SW480 (colon cancer cell lines carrying a K-RAS G12V mutation), Capan-2 (pancreatic cancer cell line carrying a K-RAS G12V mutation), and two lung cancer cell lines (SK-LU-1 carrying a K-RAS G12D mutation and NCI-H2444 carrying a K-RAS G12V mutation). […] After 5 days incubation at 37 C in a 5% CO2 incubator, the percentage of viable cells compared to control wells with 4.5 nM FabZAP alone was determined using XTT assay according to the described protocol (Advanced Targeting Systems Inc cytotoxic assay protocol). […] Plates were then incubated at 37° C. for a minimum of 30 mins and absorbance was read at 450 nm in a plate reader. […]

Data set [2] deals with AsPC-1 (pancreatic cell line carrying a K-RAS G12D mutation). The data set is described as above. The following applies: 4.5 nM FabZAP, 5 days. The data set is classed as cell-based.
From the text: as §1, §2

Data set [3] has as its system MiaPaCa-2, a K-Ras G12C expressing pancreatic cancer cell line. Described as above. The data set is classed as cell-based. The following applies: 4.5 nM FabZAP, 5 days.
A further data set relates to BXPC3 K-Ras^WT. The data set is described as above. The data set is classed as cell-based. The following applies: 4.5 nM FabZAP, 5 days.
For another data set, the system named is tumor cell. Briefly: Tumor cell killing by saporin alone without targeting antibodies (FIG. 3). The data set is classed as cell-based. Here is the method: FIG. 3 is a graphical representation of tumor cell killing, defined as % of cells alive compared to untreated control cultures with various concentrations of saporin alone without targeting antibodies. Representative of 3 replicates per group. Arrow points to 4.5 nM saporin. This 4.5 nM concentration, conjugated to the secondary antibody, is utilized in the antibody-drug conjugate (ADC) assays described in Example 3.
as §2

The subject of data set [4] is human tumor cell line PANC-1. The data set is described as follows: Cell line-derived xenograft model of pancreatic cancer, in vivo ADC experiment. Further details: species or system Balb/c nude mice. As to conditions: 10 mg/kg i.v. QW × 2 weeks; gemcitabine 50 mg/kg i.p. BIW × 2 weeks. Here is the method: DXd is a protease cleavable linker attached to a derivative of exatecan that acts as topoisomerase I inhibitor. DXd targeted to cancer cells by antibodies as an ADC has been used by FDA-approved […] is a conjugation of anti-Her-2 antibody and deruxtecan. DXd was conjugated via stochastic maleimide conjugation to interchain cysteines of the antibodies. The antibodies were first reduced using 10× molar equivalents of 10 mM TCEP at 37° C. for 90 minutes with shaking. The reduced antibodies were then conjugated with 10× molar equivalents of 10 mM DXd at room temperature for 2 hours. Conjugated antibodies were evaluated for the drug to antibody ratio (DAR) by reducing 10 μg of the crude conjugate with DTT at 37° C. for 30 minutes. The final DAR for the conjugated antibodies was 8. The multimeric state of the conjugated antibodies was evaluated by size exclusion chromatography and confirmed to be monomeric. Conjugated antibodies were purified from unconjugated DXd by dialysis against PBS, pH 5.6 with a 10K molecular-weight cut-off (MWCO) membrane for 48 hours. Next, we utilized a cell line-derived xenograft model of pancreatic cancer, where the human tumor cell line PANC-1 was implanted into Balb/c nude mice. The nude mouse is a naturally mutated mouse that lacks a thymus and hair (nude). […]

The test system of data set [5] is Panc-1 (K-Ras G12D mutant). The data set is described as follows: Growth and viability of pancreatic cancer cells cultured with R11.1.6 constructs (cell count, Trypan blue). The data set is classed as cell-based, human. As to conditions: Panc-1, 20,000 cells/well, counted after 5 days of culture. Here is the method:
We next evaluated growth as well as viability of two pancreatic cancer cell lines driven by either G12D (Panc-1) or G12C (MiaPaca-2) mutant K-Ras in vitro. We plated 20,000 cells/well in Dulbecco's modified Eagles media (DMEM) with 10% fetal bovine serum (FBS) in a flat bottom 96 well plate and counted cells after 5 days of culture. Viability of cells were calculated based on Trypan blue dye exclusion method, where dead cells were blue due to uptake of the viability dye and live cells were not stained. Viability was measured by using Countess II FL cell viability and cell counter instrument by Invitrogen (ThermoFisher USA).
Further evaluation of growth inhibition was performed with control Sulfolobus solfataricus-derived proteins of similar molecular weight. […] We started with 200,000 cells in a 96 well V-bottom plate and used BD phosflow buffer set III (BD biosciences, catalog number 558050) to stabilize and optimize the phosphor moiety. Next, we stained the cells with anti-phospho-Akt (ser473, Clone D9E) PE conjugated (Cell Signaling Technologies, Catalog number 5315S) at a concentration of 0.125 ug/100 ul or anti-phosho-ERK1/2, PE conjugated (ThermoFisher USA catalog number 12-9109-42) at a concentration of 0.125 ug/100 ul. Cells were washed in FACS staining buffer and run in a LSR Fortessa II flow cytometer (BD Biosciences, USA). […]

The subject of data set [6] is PANC-1 cells. Briefly: Surface K-Ras availability after drug treatment (antibody 1 staining, MFI fold change). The data set is classed as cell-based, human.
Description: For 5-FU treatment, 100,000 PANC-1 cells were seeded into 24 well replicate plates. Cells were allowed to grow for 24 hours before 10 uM of 5-FU was added to the culture media. At 0-, 72-, and 120-hours cells were dislodged by using TryPLE express and resuspended in buffer containing PBS pH 7.2, 5% FCS. Cells were stained with human K-Ras antibody 1. All staining was performed at 10 μg/ml of antibody concentration and a volume of 100ul for 30 minutes on ice in V-bottom 96 well plates. Surface K-Ras staining was quantitated by measuring the MFI of cells mock treated or treated with 5-FU. The fold change was calculated by normalizing to the cells stained with isotype control.
Data set [7] deals with PANC-1 cells. Briefly: Human Fab-ZAP assay with MRTX1133 treatment (XTT). The data set is classed as cell-based. The following applies: 10 nM MRTX1133, 4.5 nM FabZAP, 5 days. The source says: In this example, we used the commercially available human Fab-ZAP assay (Advanced Targeting Systems Inc.), similar to Example 3, to test whether increasing surface K-Ras availability with MRTX1133 would potentiate killing with surface K-Ras targeted ADCs. For the experiments described below, we utilized the Fab-ZAP human kit [IT-51, KIT-51](atsbio.com/products/it51/), consisting of a chemical conjugate of goat […] monovalent antibody and the ribosome-inactivating protein, saporin. The antibodies used in this kit are affinity-purified polyclonal antibodies against both the heavy and light chain of […].
In one experiment, we tested whether increasing surface K-Ras availability with the small molecule inhibitor MRTX1133 would potentiate killing with surface K-Ras targeted ADCs. […] After 5 days incubation at 37 C in a 5% CO2 incubator, the percentage of viable cells compared to control wells with 4.5 nM FabZAP alone was determined using XTT assay according to the described protocol (Advanced Targeting Systems Inc cytotoxic assay protocol). […] Plates were then incubated at 37 C for at least 30 mins, and absorbance was read at 450 nm in a plate reader. This assay relies on detecting the number of viable cells remaining on the day of development as measured via cell metabolism of a colorimetric molecule within the developing reagents. […]

Turning to Saporin, the “cell-specific killing (% of cells alive)” value (in [1]; in data set [2]; in [3]; with BXPC3 K-Ras^WT) was “showed killing” throughout. In addition, the “toxicity of saporin without a targeting agent” value in the data set with tumor cell (4.5 nM concentration used in the ADC assay) is on record as “no toxicity is evident at the 4.5 nM concentration”. Further, the “concentration of saporin alone causing cell death” value in the data set with tumor cell (without targeting antibodies) was no less than 100 nM.

In the case of `Nc1ccn([C@@H]2O[C@H](CO)[C@@H](O)C2(F)F)c(=O)n1` [gemcitabine, Gemcitabine], in data set [4], the body weight result was “demonstrated distress based on weight loss” and the “tumor growth (tumor volume)” value is on record as “slowed tumor growth over either ADC or antibody treatment”.

With `C#Cc1c(F)ccc2cc(O)cc(-c3ncc4c(N5CC6CCC(C5)N6)nc(OC[C@@]56CCCN5C[C@H](F)C6)nc4c3F)c12` [MRTX1133], the growth and viability entry in data set [5] was “R11.1.6-mediated inhibition of Panc-1 growth and viability was like the G12D inhibitor MRTX1133”. In addition, in the data set on PANC-1 cells [6] (10 nM, 0, 72 and 120 hours), the “availability of surface K-Ras (MFI fold change)” value is “increased the availability of surface K-Ras on PANC-1 cells”. In addition, in the data set on PANC-1 cells [7], the “cell killing (% alive)” value is listed as “able to kill cells”.

Take `O=c1[nH]cc(F)c(=O)[nH]1` [5-FU, fluorouracil]: the “availability of surface K-Ras (MFI fold change)” value in the data set on PANC-1 cells [6] (10 uM, 0, 72 and 120 hours) is given as “increased the availability of surface K-Ras in Panc-1 cells”.
